Series [1] has as its system mouse propionibactrium acnes (P. acnes)-lipopolysaccharide (LPS)-induced fulminant hepatitis model. Briefly: mouse P. acnes-lipopolysaccharide (LPS)-induced fulminant hepatitis model. The class given is in vivo, male Balb/c mice. The settings on record: for responders at 100 mg/kg: Cutibacterium acnes, po, 24 h, read-out: Survival rate (%), test compd. group. The method, then:
One mg/mouse of heat-killed P. acnes was intravenously injected into a five-week-old male Balb/c mice and LPS was additionally intravenously injected at a dose of 1 microgram/mouse 7 days after the injection of P.acnes to induce fulminant hepatitis. Each test compound was suspended in a 0.5% methylcellulose solution and orally administered at a dose of 100 mg/kg 30 min before the intravenous injection of LPS.
Survival rates and GPT activity in plasma of the survivors were determined in 24 hours after the intravenous injection of LPS. The mice treated with each test compound against the lethality and hepatic injury induced with P. acnes-LPS are shown in Table 2.

Series [2] concerns rat D-galactosamine (GalN)-induced acute hepatitis model. Briefly: rat D-galactosamine (GalN)-induced acute hepatitis model. To be noted: 300 mg/kg GalN s.c., compound 100 mg/kg oral 1 hr after GalN, blood 48 hr after GalN. The class given is in vivo, Fischer (F 344) male rat. The method, then:
300 mg/kg of GalN was subcutaneously injected into a Fischer (F 344) male rat(s) (around 180 g) to induce acute hepatitis. Each test compound was suspended in a 0.5% aqueous methylcellulose solution and orally administered at a dose of 100 mg/kg one hr after the injection of GalN.
Blood was sampled from the tail of the rat 48 hr after the injection of GalN. The blood clotting time was measured by Hepaplastin test (HPT), and at the same time GPT activity in the plasma was measured enzymatically.

A short description of series [3]: Toxicity test, one week oral administration. The class given is in vivo. Further details: dose or concentration left out as unconfirmed. To be noted: seven-week male SD rat.
The mark [4] stands for this setting: plasma GPT of survivors 24 hours after LPS, 100 mg/kg oral, value is test group.
Where [5] appears, read: read-out: Percentage inhibition (%) GPT (plasma GPT activity).
Where [6] appears, read: read-out: Percentage inhibition (%) HPT (blood clotting time, Hepaplastin test).

Where two headings read alike, the source gives them in different places.

For the molecule `CCCCCCCCC/C(=C\C1=C(C)C(=O)C(OC)=C(OC)C1=O)C(=O)O` [Example 4, (E)-3-[5-(2,3-Dimethoxy-6-methyl-1,4-benzoquinoyl)]-2-nonyl-2-propenoic acid], the responders at 100 mg/kg in series [1] came to 64%. Besides, the “GPT (survival rate), test compd. group (%) [part 1]” value (shortened to “GPT (survival rate) … (%) [part 1]”) in series [1] (setting [4]) is recorded as 358 ± 40%. The results for the inhibition in vivo at 100 mg/kg in series [2] (setting [5]) and in series [2] (setting [6]) were 91% and 87%, respectively. Besides, the death result in series [3] was “no compound was found to cause death”.

Regarding `COc1c(O)c(C)c(/C=C(\C(=O)O)c2ccccc2)c(OC)c1OC` [Example 14, (Z)-3-[5-(1-Hydroxy-6-methyl-2,3,4-trimethoxy)phenyl]-2-phenyl-2-propenoic acid], the responders at 100 mg/kg in series [1] was 100%. The “GPT (survival rate) … (%) [part 1]” value in series [1] (setting [4]) is 297 ± 50%. Moreover, the inhibition in vivo at 100 mg/kg was 78% in series [2] (setting [5]) and 76% in series [2] (setting [6]).

`CCCCC/C(=C\c1c(C)c(O)c(OCC)c(OCC)c1OCC)C(=O)O` [compound 20]: in series [1], the responders at 100 mg/kg was 70%. In series [1] (setting [4]), the “GPT (survival rate) … (%) [part 1]” value worked out at 293 ± 65%. The inhibition in vivo at 100 mg/kg in series [2] (setting [5]) and in series [2] (setting [6]) was 68% each time.

With `CCOc1c(O)c(C)c(/C=C(\Cc2ccccc2)C(=O)O)c(OCC)c1OCC` [compound 79], in series [1], the responders at 100 mg/kg was found to be 50%. Moreover, the “GPT (survival rate) … (%) [part 1]” value in series [1] (setting [4]) worked out at 1009 ± 196%. Further, the figures for the inhibition in vivo at 100 mg/kg in series [2] (setting [5]) and in series [2] (setting [6]) were 94% and 89%, respectively.

As to `CCCCCCCCC/C(=C\c1c(C)c(O)c(OC)c(OC)c1O)C(=O)O` [compound 127], the inhibition in vivo at 100 mg/kg came out at 60% in series [2] (setting [5]) and 71% in series [2] (setting [6]).

As for `CCOC1=C(OC)C(=O)C(C)=C(/C=C(\CCC(C)C)C(=O)O)C1=O` [compound 135], in series [1], the responders at 100 mg/kg was determined as 50%. Further, the values for the inhibition in vivo at 100 mg/kg in series [2] (setting [5]) and in series [2] (setting [6]) were 52% and 51%, respectively.

For the molecule `COC1=C(/C=C(\CCC(C)C)C(=O)O)C(=O)C(OC)=C(OC)C1=O` [compound 137], in series [1], the responders at 100 mg/kg amounted to 30%. For the same molecule, the inhibition in vivo at 100 mg/kg in series [2] (setting [5]) is 77%; in series [2] (setting [6]), 73%. Besides, the death result in series [3] is reported as “no compound was found to cause death”.

In the case of `COC1=C(OC)C(=O)C(/C=C(\CC2CCCCC2)C(=O)O)=C(C)C1=O` [compound 141], the responders at 100 mg/kg in series [1] stood at 25%. Further, the inhibition in vivo at 100 mg/kg stood at 100% in series [2] (setting [5]) and 98% in series [2] (setting [6]).

Turning to `CCOC1=C(OC)C(=O)C(C)=C(/C=C(\CC2CCCCC2)C(=O)O)C1=O` [compound 142], the responders at 100 mg/kg in series [1] is 100%. Besides, the “GPT (survival rate) … (%) [part 1]” value in series [1] (setting [4]) stood at 381 ± 19%. Besides, the inhibition in vivo at 100 mg/kg in series [2] (setting [5]) was 76%; in series [2] (setting [6]) it was 67%. Moreover, the death result in series [3] was “no compound was found to cause death”.

On to `CCOC1=C(OCC)C(=O)C(/C=C(\CC2CCCCC2)C(=O)O)=C(C)C1=O` [compound 144], for which the responders at 100 mg/kg in series [1] is 100%. Besides, the “GPT (survival rate) … (%) [part 1]” value in series [1] (setting [4]) came out at 280 ± 31%. Moreover, the figures for the inhibition in vivo at 100 mg/kg in series [2] (setting [5]) and in series [2] (setting [6]) were 78% and 79%, respectively.

Take `COC1=C(/C=C(\CC2CCCCC2)C(=O)O)C(=O)C(OC)=C(OC)C1=O` [compound 149]: the responders at 100 mg/kg in series [1] stood at 67%. For the same molecule, the “GPT (survival rate) … (%) [part 1]” value in series [1] (setting [4]) was determined as 209 ± 66%. For the same molecule, the inhibition in vivo at 100 mg/kg worked out at 93% in series [2] (setting [5]) and 95% in series [2] (setting [6]).

With `COC1=C(OC)C(=O)C(/C=C(\CCCCC#N)C(=O)O)=C(C)C1=O` [compound 176], the responders at 100 mg/kg in series [1] is 80%. Moreover, the “GPT (Ku/ml), test compd. group [part 2]” value in series [1] (setting [4]) is reported as 297 ± 50 Ku/ml. In addition, the inhibition in vivo at 100 mg/kg turned out to be 96% in series [2] (setting [5]) and 97% in series [2] (setting [6]).

For `COC1=C(OC)C(=O)C(/C=C(\CCCSC)C(=O)O)=C(C)C1=O` [compound 183], the responders at 100 mg/kg in series [1] was 22%. In addition, the inhibition in vivo at 100 mg/kg was found to be 86% in series [2] (setting [5]) and 80% in series [2] (setting [6]).

For `COC1=C(OC)C(=O)C(/C=C(\Cc2cccs2)C(=O)O)=C(C)C1=O` [compound 217], in series [1], the responders at 100 mg/kg came to 80%. Further, the inhibition in vivo at 100 mg/kg in series [2] (setting [5]) stood at 97%; in series [2] (setting [6]), 99%.

The values above are taken from patent US5210239A, “Ouinone derivatives and pharmacological use” (Eisai Co., Ltd., priority 1989, dated 1993).
